Positions of bridges follow the written chain, without caps; N, C: chain ends. Non-standard residues stand in square brackets, D forms with d. Residues, ends and D or L forms follow the SMILES beside them. *: point of attachment. Ileψ(thiazoline)Cys = CC[C@H](C)[C@H](N)C1=N[C@H](C(=O)*)CS1; dOrn = NCCC[C@@H](N)C(=O)O
Experiments:
[1] = Growth promotion in chicks, Example XI (Table V); assay type: in vivo, broiler cross chicks; settings: for feed efficiency (in words) / growth rate (in words): 25 g/T; for Average 4 Week Performance: Feed Efficiency / Average 4 Week Performance: Gain / Improved Response Over Basal Ration: Feed Efficiency / Improved Response Over Basal Ration: Gain: 25 g/T in basal ration, 4 weeks
Excerpt: (§1) This example compares growth promotion activity of the product of Example I with other growth promotants at a concentration of 25 g/T in the Basal Ration described in Example VII. The other growth promotants include the product described in Example I of U.S. Pat. No. 3,542,784 -- Burch and quinoxaline-1,4-dioxide. Day old broiler cross chicks were weight equalized into groups of eight chicks each, and four replicates of eight chicks each were fed the experimental rations over a 4 week period.
The growth promotion tests described in Example X were repeated with the exception that five replicates of eight chicks each were fed the formulations described in Table V for 4 weeks.

[2] = Growth promotion in chicks at 25 g/T, Example X (Table IV); assay type: in vivo, broiler cross chicks
Excerpt: as §1

[3] = system: Salmonella cholerasuis; assay: Bactericide test, Salmonella cholerasuis (agar streak plate); assay type: cell-based; settings: Salmonella, read-out: % Control In Vitro Growth
Excerpt: (§2) Test formulations were examined for bactericidal and/or bacteriostatic activity against the test organisms shown in Tables A and B. These organisms were chosen as being representative of commercially important pathogens affecting animal agriculture. The antibiotic chlortetracycline was chosen as a positive control, since it has a broad spectrum of activity against a large number of organisms, and its activity can be used for comparative purposes.
(§3) Basic test formulations of the product of Examples I, II, III, and of chlortetracycline were prepared by dissolving 16 mg (0.016 g) in 2.0 ml of stock emulsifier solution (0.25% Triton X-155 in acetone by volume) and making each solution up to 50 ml with deionized water. The concentration of the test compound in the basic formulation was 320 ppm. Lower concentrations of the test compound were obtained by diluting the basic formulation with a 4% solution of the stock emulsifier in deionized water so that each dilution in the series differed only in test compound content.
(§4) Nutrient-tryptic soy agar (NTA) consisting of 2.0% Difco Bactoagar 0.8% nutrient broth (Difco), and 0.5% tryptic soy broth (Difco) was prepared and sterilized by autoclaving. A 2 ml aliquot of each test formulation was added to 8 ml of molten NTA. This mixture was then plated in a sterile polystyrene petri dish (100 × 15 mm). After the agar was set, suspensions of each of the test organisms were simultaneously streaked onto the surface of the agar. The inoculated plates were incubated for 48 hr at 28°C. The inhibition of growth of each organism was rated by visual comparison with the organism developing on non-treated agar. Growth inhibition reported as per cent control was rated in three categories as follows: 0% control, growth equivalent to that on non-treated agar; 50% control, sparse development and separated colonies; 100% control, no visible growth or development of colonies.
(§5) Test formulations of the product of Example IV were examined for bactericidal and/or bacteriostatic activity against the test organisms shown in Table B using the Bactericide Test described in Example V. The inhibition of organism growth with each diluted test formulation was rated visually by comparison with the organism developing on a non-treated control agar plate. Growth inhibition reported as per cent control was rated in three categories as follows: 0% control, growth equivalent to that on non-treated agar; 50% control is sparse development and separated colonies; and 100% control, development of individual colonies was not apparent.

[4] = system: Bordetella bronchiseptica; assay: Bactericide test, Bordetella bronchiseptica (agar streak plate); assay type: cell-based; settings: 100% inhibition at lower concentrations
Excerpt: as §2, §3, §4

[5] = system: Streptococcus group E; assay: Bactericide test, Streptococcus group E (agar streak plate); assay type: cell-based; settings: 100% inhibition at lower concentrations
Excerpt: as §2, §3, §4

[6] = system: Streptococcus agalactiae; assay: Bactericide test, Streptococcus agalactiae (agar streak plate); assay type: cell-based; settings: 100% inhibition at lower concentrations
Excerpt: as §2, §3, §4

[7] = system: Streptococcus faecalis; assay: Bactericide test, Streptococcus faecalis (agar streak plate); assay type: cell-based; settings: 100% inhibition at lower concentrations
Excerpt: as §2, §3, §4, §5

[8] = system: Erysipelothrix rhusiopathiae; assay: Bactericide test, Erysipelothrix rhusiopathiae (agar streak plate); assay type: cell-based; settings: 100% inhibition at lower concentrations
Excerpt: as §2, §3, §4

[9] = system: Salmonella gallinarum; assay: Bactericide test, Salmonella gallinarum (agar streak plate); assay type: cell-based; settings: Salmonella enterica, GALLINARUM, read-out: % Control In Vitro Growth
Excerpt: as §2, §3, §4, §5

[10] = system: Vibrio coli; assay: Bactericide test, Vibrio coli (agar streak plate); assay type: cell-based; settings: 100% inhibition at lower concentrations
Excerpt: as §2, §3, §4

[11] = Growth promotion and feed efficiency in chicks, Example VII (Table I); assay type: in vivo, broiler cross chicks; settings: bacitracin 4 g/T alone in basal ration (negative control); 4 weeks
Excerpt: One hundred 20 day-old broiler cross chicks were weight equalized into 15 groups of eight chicks each and placed in battery brooders. The 40 chick treatment groups (five replicates) were fed the one of the three rations described below for a 4 week period. Weekly measurements of body weights and feed consumption were made by replicate, and these measurements used to calculate weight gain and feed efficiency.
The commercial type broiler starter basal ration which was used in this study was designated as the Basal Ration, and had the following composition:
The preceding basal ration was mixed with bacitracin at a level of 4 g/T as the only growth stimulant to simulate commercial practice. This mixture was designated as the Basal Ration + Bacitracin (4 g/T) and constituted the negative control in this study.
A second ration was prepared by fortifying the Basal Ration + bacitracin described above with the Product from Example I above at a level of 200 g/T, and was designated as Basal Ration + Bacitracin + Product of Example I (200 g/T). A third ration was prepared by fortifying the Basal Ration + bacitracin described above with chlortetracycline (CTC) at a level of 200 g/T, and was designated as Basal Ration + Bacitracin + Chlortetracycline (200 g/T). Chlortetracycline served as the positive control in this test because it had shown strong growth promotion in numerous previous tests at this therapeutic level.
The commercial value of the product of Example I is indicated by the fact that these significant responses were obtained in addition to the growth stimulation provided by the presence of bacitracin in the ration. It is important to note that the negative controls in this example and in Examples VIII and X which follow were characterized by rapid rates of growth. This high plane of growth and feed efficiency performance on the part of the negative controls makes the responses to the test compounds all the more meaningful.
The term "growth promotion" is used herein to describe the beneficial effect of a compound in eliciting a more rapid rate of weight gain when compared to the weight gain of control animals not fed the compound. "Feed efficiency" is a term regularly used in animal husbandry and is a measure of the pounds of feed required to produce a pound of gain in the weight of the animal. A lower mathmatical value for feed efficiency reflects improved performance. […] In this case, as in the case of the weight gain (fifth column), an improved performance is indicated by a higher positive number.

[12] = Growth promotion in chicks at low feed levels, Example VIII (Table II); assay type: in vivo, broiler cross chicks; settings: 4 g/T in basal ration; 4 weeks
Excerpt: Day old broiler cross chicks were weight equalized into groups of eight chicks each and were placed in battery brooders. The 32 chick treatment groups (four replicates) were fed one of the five rations described below for a 4 week period. Weekly measurements of body weights and feed consumption were made by replicate, and these measurements used to calculate weight gain and feed efficiency.
The basal ration was the basal ration used in Example VII above. The remaining five rations were obtained by mixing the indicated quantities of bacitracin (4 g/T), chlortetracycline (10 g/T), product of Example I (10 g/T), and product of Example III of U.S. Pat. No. 3,542,784 -- Burch (10 g/T) as growth promotants with the basal ration.

[13] = 25 g/T in basal ration, 4 weeks

SMILES: [O-][n+]1cc[n+]([O-])c2ccccc21 [Quinoxaline-1,4-dioxide, quinoxaline-1,4-dioxide]
- feed efficiency (in words) [1]: improvement in feed efficiency
- growth rate (in words) [1]: questionable effect on growth
- Average 4 Week Performance: Feed Efficiency [1]: 1.709
- Average 4 Week Performance: Gain [1]: 740.8 g
- Improved Response Over Basal Ration: Feed Efficiency [1]: +5.2%
- Improved Response Over Basal Ration: Gain [1]: +1.1%
- effect on feed efficiency (in words) ([2]; 25 g/T): did not have any apparent effect
- growth response (in words) ([2]; 25 g/T): did not have any apparent effect
- Average 4 Week Performance: Feed Efficiency [2, 13]: 1.550
- Average 4 Week Performance: Gain [2, 13]: 756.6 g
- Improved Response Over Basal Ration: Feed Efficiency [2, 13]: +0.1%
- Improved Response Over Basal Ration: Gain [2, 13]: -1.1%

SMILES: O=[N+]([O-])c1ccc(C=Cc2nc(Nc3ccccc3)c3ccccc3n2)o1 [Example IV, 2-[2-(5-nitro-2-furyl)vinyl]-4-anilinoquinazoline]
- inhibition of growth at 0.007 ppm ([3]; 0.007 ppm): 0%
- inhibition of growth at 0.01 ppm ([3]; 0.01 ppm): 0%
- inhibition of growth at 0.03 ppm ([3]; 0.03 ppm): 0%
- inhibition of growth at 0.06 ppm ([3]; 0.06 ppm): 0%
- inhibition of growth at 0.125 ppm ([3]; 0.125 ppm): 0%
- inhibition of growth at 0.25 ppm ([3]; 0.25 ppm): 0%
- inhibition of growth at 0.5 ppm ([3]; 0.5 ppm): 0%
- inhibition of growth at 1 ppm ([3]; 1 ppm): 50%
- inhibition of growth at 2 ppm ([3]; 2 ppm): 50%
- inhibition of growth at 4 ppm ([3]; 4 ppm): 50%
- effectiveness compared with chlortetracycline (in words) [4]: considerably more effective
- effectiveness compared with chlortetracycline (in words) [5]: considerably more effective
- effectiveness compared with chlortetracycline (in words) [6]: considerably more effective
- effectiveness compared with chlortetracycline (in words) [7]: considerably more effective
- effectiveness compared with chlortetracycline (in words) [8]: considerably more effective
- inhibition of growth at 0.007 ppm ([9]; 0.007 ppm): 0%
- inhibition of growth at 0.01 ppm ([9]; 0.01 ppm): 0%
- inhibition of growth at 0.03 ppm ([9]; 0.03 ppm): 0%
- inhibition of growth at 0.06 ppm ([9]; 0.06 ppm): 0%
- inhibition of growth at 0.125 ppm ([9]; 0.125 ppm): 0%
- inhibition of growth at 0.25 ppm ([9]; 0.25 ppm): 100%
- inhibition of growth at 0.5 ppm ([9]; 0.5 ppm): 100%
- inhibition of growth at 1 ppm ([9]; 1 ppm): 100%
- inhibition of growth at 2 ppm ([9]; 2 ppm): 100%
- inhibition of growth at 4 ppm ([9]; 4 ppm): 100%
- effectiveness compared with chlortetracycline (in words) [10]: considerably more effective

SMILES: CC[C@H](C)[C@H](N)C1=N[C@H](C(=O)N[C@@H](CC(C)C)C(=O)N[C@H](CCC(=O)O)C(=O)N[C@H](C(=O)N[C@H]2CCCCNC(=O)[C@H](CC(N)=O)NC(=O)[C@@H](CC(=O)O)NC(=O)[C@H](Cc3cnc[nH]3)NC(=O)[C@@H](Cc3ccccc3)NC(=O)[C@H]([C@@H](C)CC)NC(=O)[C@@H](CCCN)NC2=O)[C@@H](C)CC)CS1 [Bacitracin] ({Ileψ(thiazoline)Cys}-L[dE]IK[dOrn]I[dF]H[dD]N; lactam 4-C)
- Average 4 Week Performance: Feed Efficiency [11]: 1.721
- Average 4 Week Performance: Gain [11]: 694.5 gms
- feed efficiency (in words) [1]: moderate improvements in feed efficiencies
- growth rate (in words) [1]: slight improvements in growth rates
- Average 4 Week Performance: Feed Efficiency [1]: 1.746
- Average 4 Week Performance: Gain [1]: 741.3 g
- Improved Response Over Basal Ration: Feed Efficiency [1]: +3.1%
- Improved Response Over Basal Ration: Gain [1]: +1.2%
- Average 4 Week Performance: Feed Efficiency [12]: 1.739
- Average 4 Week Performance: Gain [12]: 703.6 g
- Improved Response Over Basal Ration: Feed Efficiency [12]: +1.2%
- Improved Response Over Basal Ration: Gain [12]: -2.3%

From patent publication US3970648A, “2-[2-(5-Nitro-2-furyl)vinyl]-4-(anilino)quinazolines” (Diamond Shamrock Corporation, priority 1974, dated 1976)
